According to US4746678A, “Phenanthrene derivatives” (EGIS Gyoryszergyar, priority 1985, dated 1988):

What was measured:
[1] = tested on: bean rust (Uromyces apperdiculatus); test: in vivo test on "pinto" bean against bean rust; parameters: species or system "pinto" bean (host plant); details: spray at a concentration of 500 ppm; symptoms 7-8 days after infection
Experimental: A further test is carried out on "pinto" bean species against bean rust (Uromyces apperdiculatus). Into each cultivating dish three seeds are sown in a 1:1:0.035 mixture of sand, perlite and super compost. Two-leave staged bean plants subjected to 7-9 days' glass house pre-cultivation are treated with the test compound and the treated plants are inoculated. The concentration of the spore suspension amounts to 0.1 g/10 ml and 2.5 ml of spore suspension are used for each cultivating dish. After inoculation the plants are incubated at 20° C. under a relative moisture content of 100% for 48 hours. The symptoms manifest themselves 7-8 days after infection. Three replicates are used; untreated control treatment is also carried out and the commercial product "Dithane M 45" serves as reference.

wheat powdery mildew = test: in vivo test against wheat powdery mildew; parameters: species or system "MV-4" wheat (host plant); details: identical test conditions
Experimental: In vivo tests are carried out against cereals powdery mildew.
In vivo activity is tested against wheat powdery mildew in a phytobox of the Conviron type, at 20° C., a relative humidity of 90% and a light intensity of 9000 lux. As host plant the elite propagating seed grain material of officially qualified "MV-4" wheat species is used. Wheat plants are cultivated in 6 days' periods, in cultivating dishes (diameter 11 cm) containing a 1:1 mixture of sand and perlite. Each dish contains 160 plants; at the beginning of the treatment the plants were 5-6 cm high. High dispersity grade aqueous suspensions or acetonic solutions of the test compound are prepared and 8 ml of each suspension or solution, respectively, are applied onto the plants by means of a spraying apparatus operated by gaseous nitrogen. Inoculation is carried out 24 days after the fungicidal treatment. The test units are placed in three replicates and in random block arrangement in the phytotron. The rate of infectedness is determined on the 8th day after inoculation. Numerical evaluation is accomplished on the basis of the method described by Hinfner and Papp by observing separately 50-60 plants.
The results are expressed as ED50 and ED90 values of the test compounds being calculated from the co-relation of effect and concentration by means of mathematical-biometrical methods. […]

Row | Compound | inhibition of bean rust infection [1] [%] | activity relative to the most efficient novel compounds (products of Examples 7 and 8) (wheat powdery mildew)
1 | CNC(=O)ON=C1C(=O)c2ccccc2-c2ccccc21 [Example 8, 9,10-Phenanthrene-dione-9-(methylaminocarbonyl)-oxime] | 100 | 
2 | CCCCNC(=O)ON=C1C(=O)c2ccccc2-c2ccccc21 [Example 7, 9,10-phenanthrene-dione-9-(n-butyl-aminocarbonyl)-oxime] | 100 | 
3 | CCCCNC(=O)n1c(NC(=O)OC)nc2ccccc21 [Reference compound, methyl-1-(n-butylcarbamoyl)-2-benzimidazole-carbamate] |  | lower activity
4 | C/C=C/C(=O)Oc1c(C(C)CCCCCC)cc([N+](=O)[O-])cc1[N+](=O)[O-] (stereo not shown) [6-(1-methyl-heptyl-2,4-dinitro-phenyl-crotonate)] |  | lower activity
